Source: PubChem BioAssay (NCI)
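Values below derive from 48-hour exposures of cells grown in 96-well plates, with endpoints linearly interpolated between the two concentrations bracketing the appropriate inhibition level. Abbreviation: GI50, concentration required for 50% inhibition of growth. TGI: concentration producing complete growth inhibition.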

The compounds below were run on A498 renal (assay: growth of human tumour cells (NCI), 48 h).
For `Cc1ccc(C(=O)CC(Sc2cccc(Cl)c2Cl)c2ccc(Cl)cc2)cc1C` (stereo not drawn), the GI50 was 19.2 µM and the TGI was 46.8 µM. `Oc1c(Br)cc(CN(Cc2cc(Br)c(O)c(Br)c2)C2CCCCC2)cc1Br` was tested, and the TGI was over 100 µM. For `CNc1nc(NC2CCCC2)nc(Sc2ccc(OC)cc2)n1`, the GI50 was over 10 µM and the TGI was over 10 µM. Work on `C=CC(=O)Nc1cccc(Nc2nc(Nc3ccc(OCCOC)cc3)ncc2F)c1` yielded a GI50 of 0.306 µM and a TGI of 1.66 µM. `CNC(=O)c1cn(C[C@H](F)CCc2ccc(NC(=O)Cc3cc(OC4CC(F)(F)C4)cc(C)n3)nn2)nn1` showed a GI50 of 0.0854 µM and a TGI of 1.27 µM. In the case of `Cc1sc(C)c(-c2ccc(CO)o2)c1-c1ccc(CO)o1`, the GI50 is reported as 0.0205 µM and the TGI is reported as 0.0973 µM. `CC1=C(C)C(=O)O[C@@H]([C@](C)(O)[C@]2(O)CC[C@@]3(O)[C@@H]4C[C@H]5O[C@]56CC=CC(=O)[C@]6(C)[C@H]4CC[C@]23C)C1` gave a GI50 of 0.218 µM and a TGI of 0.784 µM. `CNC(=O)c1ccc(-c2cnc3ncc(Cc4ccc5ncccc5c4)n3n2)cc1F` showed a GI50 of over 100 µM and a TGI of over 100 µM. `O=C(Nc1cc(-c2ccccc2)[nH]n1)c1ccc(Cl)cc1` was tested, and the GI50 was 1.27 µM and the TGI was over 100 µM. `CN1CCN(Cc2ccc(NC(=O)c3ccc(C(C)(C)C)c(C#Cc4cnc5cccnn45)c3)cc2C(F)(F)F)CC1` gave a GI50 of 7.18 µM and a TGI of 23.4 µM. In the case of `C=CC(=O)N1CCN(c2ncnc3c(F)c(-c4c(O)cccc4F)c(Cl)cc23)CC1`, the GI50 is reported as 5.45 µM and the TGI is reported as 19.1 µM. For `COc1cc(/C=C2\CC3C4CC=C5CC(N6CCCC6)CC[C@]5(C)C4CC[C@]3(C)C2OC(C)=O)ccc1OCCN1CCCC1` (stereo partly drawn), the GI50 was 1.52 µM and the TGI was 3.26 µM. `CN(C)CCNC(=O)Nc1c(C#N)[n+]([O-])c2cc(Cl)c(Cl)cc2[n+]1[O-]` gave a GI50 of 51.6 µM and a TGI of over 100 µM.

The compounds below were run on A549 NSCLC (assay: growth of human tumour cells (NCI), 48 h).
`Cc1ccc(C(=O)CC(Sc2cccc(Cl)c2Cl)c2ccc(Cl)cc2)cc1C` (stereo not drawn) showed a GI50 of 19.2 µM and a TGI of 52.6 µM. `Oc1c(Br)cc(CN(Cc2cc(Br)c(O)c(Br)c2)C2CCCCC2)cc1Br` showed a TGI of over 100 µM. For `CNc1nc(NC2CCCC2)nc(Sc2ccc(OC)cc2)n1`, the GI50 was over 10 µM and the TGI was over 10 µM. For `C=CC(=O)Nc1cccc(Nc2nc(Nc3ccc(OCCOC)cc3)ncc2F)c1`, the GI50 was 2.77 µM and the TGI was 13.1 µM. With `CNC(=O)c1cn(C[C@H](F)CCc2ccc(NC(=O)Cc3cc(OC4CC(F)(F)C4)cc(C)n3)nn2)nn1` the GI50 was 0.0594 µM and the TGI was over 100 µM. With `Cc1sc(C)c(-c2ccc(CO)o2)c1-c1ccc(CO)o1` the GI50 was 2.88 µM and the TGI was over 100 µM. For `CC1=C(C)C(=O)O[C@@H]([C@](C)(O)[C@]2(O)CC[C@@]3(O)[C@@H]4C[C@H]5O[C@]56CC=CC(=O)[C@]6(C)[C@H]4CC[C@]23C)C1`, the GI50 was 0.568 µM and the TGI was 5.93 µM. With `CNC(=O)c1ccc(-c2cnc3ncc(Cc4ccc5ncccc5c4)n3n2)cc1F` the GI50 was over 100 µM and the TGI was over 100 µM. For `O=C(Nc1cc(-c2ccccc2)[nH]n1)c1ccc(Cl)cc1`, the GI50 was 30.4 µM and the TGI was over 100 µM. With `CN1CCN(Cc2ccc(NC(=O)c3ccc(C(C)(C)C)c(C#Cc4cnc5cccnn45)c3)cc2C(F)(F)F)CC1` the GI50 was 1.91 µM and the TGI was 3.57 µM. For `C=CC(=O)N1CCN(c2ncnc3c(F)c(-c4c(O)cccc4F)c(Cl)cc23)CC1`, the GI50 was 18 µM and the TGI was 40.7 µM. For `COc1cc(/C=C2\CC3C4CC=C5CC(N6CCCC6)CC[C@]5(C)C4CC[C@]3(C)C2OC(C)=O)ccc1OCCN1CCCC1` (stereo partly drawn), the GI50 was 2.08 µM and the TGI was 4.63 µM. Compound `CN(C)CCNC(=O)Nc1c(C#N)[n+]([O-])c2cc(Cl)c(Cl)cc2[n+]1[O-]` has a GI50 of 34 µM and a TGI of over 100 µM.

What follows are compounds tested on BT-549 breast (assay: growth of human tumour cells (NCI), 48 h).
Work on `Cc1ccc(C(=O)CC(Sc2cccc(Cl)c2Cl)c2ccc(Cl)cc2)cc1C` (stereo not drawn) yielded a GI50 of 24.5 µM and a TGI of 46.9 µM. With `Oc1c(Br)cc(CN(Cc2cc(Br)c(O)c(Br)c2)C2CCCCC2)cc1Br` the TGI was over 100 µM. `CNc1nc(NC2CCCC2)nc(Sc2ccc(OC)cc2)n1` showed a GI50 of over 10 µM and a TGI of over 10 µM. `C=CC(=O)Nc1cccc(Nc2nc(Nc3ccc(OCCOC)cc3)ncc2F)c1` was tested, and the GI50 was 0.718 µM and the TGI was 8.23 µM. For `CNC(=O)c1cn(C[C@H](F)CCc2ccc(NC(=O)Cc3cc(OC4CC(F)(F)C4)cc(C)n3)nn2)nn1`, the GI50 was over 100 µM and the TGI was over 100 µM. `Cc1sc(C)c(-c2ccc(CO)o2)c1-c1ccc(CO)o1` showed a GI50 of over 71.7 µM and a TGI of over 100 µM. Compound `CC1=C(C)C(=O)O[C@@H]([C@](C)(O)[C@]2(O)CC[C@@]3(O)[C@@H]4C[C@H]5O[C@]56CC=CC(=O)[C@]6(C)[C@H]4CC[C@]23C)C1` has a GI50 of 0.335 µM and a TGI of 1.45 µM. For `CNC(=O)c1ccc(-c2cnc3ncc(Cc4ccc5ncccc5c4)n3n2)cc1F`, the GI50 was over 100 µM and the TGI was over 100 µM. For `O=C(Nc1cc(-c2ccccc2)[nH]n1)c1ccc(Cl)cc1`, the GI50 was over 100 µM and the TGI was over 100 µM. For `CN1CCN(Cc2ccc(NC(=O)c3ccc(C(C)(C)C)c(C#Cc4cnc5cccnn45)c3)cc2C(F)(F)F)CC1`, the GI50 was 15 µM and the TGI was 28.9 µM. Work on `C=CC(=O)N1CCN(c2ncnc3c(F)c(-c4c(O)cccc4F)c(Cl)cc23)CC1` yielded a GI50 of 3.87 µM and a TGI of 17.3 µM. `COc1cc(/C=C2\CC3C4CC=C5CC(N6CCCC6)CC[C@]5(C)C4CC[C@]3(C)C2OC(C)=O)ccc1OCCN1CCCC1` (stereo partly drawn) showed a GI50 of 16.6 µM and a TGI of 31.4 µM. In the case of `CN(C)CCNC(=O)Nc1c(C#N)[n+]([O-])c2cc(Cl)c(Cl)cc2[n+]1[O-]`, the GI50 is reported as 10.7 µM and the TGI is reported as 39.8 µM.

The compounds below were run on HS 578T breast (assay: growth of human tumour cells (NCI), 48 h).
Compound `Cc1ccc(C(=O)CC(Sc2cccc(Cl)c2Cl)c2ccc(Cl)cc2)cc1C` (stereo not drawn) has a GI50 of 27.9 µM and a TGI of 75.2 µM. `Oc1c(Br)cc(CN(Cc2cc(Br)c(O)c(Br)c2)C2CCCCC2)cc1Br` gave a TGI of over 100 µM. Compound `CNc1nc(NC2CCCC2)nc(Sc2ccc(OC)cc2)n1` has a GI50 of over 10 µM and a TGI of over 10 µM. `C=CC(=O)Nc1cccc(Nc2nc(Nc3ccc(OCCOC)cc3)ncc2F)c1` gave a GI50 of 1.17 µM and a TGI of 6.97 µM. `CNC(=O)c1cn(C[C@H](F)CCc2ccc(NC(=O)Cc3cc(OC4CC(F)(F)C4)cc(C)n3)nn2)nn1` was tested, and the GI50 was 5.37 µM and the TGI was over 100 µM. `Cc1sc(C)c(-c2ccc(CO)o2)c1-c1ccc(CO)o1` gave a GI50 of 43 µM and a TGI of over 100 µM. `CC1=C(C)C(=O)O[C@@H]([C@](C)(O)[C@]2(O)CC[C@@]3(O)[C@@H]4C[C@H]5O[C@]56CC=CC(=O)[C@]6(C)[C@H]4CC[C@]23C)C1` gave a GI50 of 0.127 µM and a TGI of 2.33 µM.
